The values below come from article PMC6934184, “Selective DNA-PKcs inhibition extends the therapeutic index of localized radiotherapy and chemotherapy” (The Journal of Clinical Investigation, 2019).

This assay addresses T1, KIT Y823D (Homo sapiens, UniProt P10721, Y823D).
T1 construct: purchased Thermo Fisher Scientific (Life Technologies) SelectScreen
Put plainly: SelectScreen LanthaScreen. The class given is binding. The following applies: read-out: % displacement. The procedure, abridged: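 NU5455 was profiled across the SelectScreen Broad panel of kinase activity and binding assays. Z'LYTE reactions such as CSF1R ran at apparent Km ATP, while the Adapta CAMK1 assay used ATP listed as 10. Values are given as percent.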

The structures appear in SMILES notation.

T1 sequence (P10721 26-976 Y823D): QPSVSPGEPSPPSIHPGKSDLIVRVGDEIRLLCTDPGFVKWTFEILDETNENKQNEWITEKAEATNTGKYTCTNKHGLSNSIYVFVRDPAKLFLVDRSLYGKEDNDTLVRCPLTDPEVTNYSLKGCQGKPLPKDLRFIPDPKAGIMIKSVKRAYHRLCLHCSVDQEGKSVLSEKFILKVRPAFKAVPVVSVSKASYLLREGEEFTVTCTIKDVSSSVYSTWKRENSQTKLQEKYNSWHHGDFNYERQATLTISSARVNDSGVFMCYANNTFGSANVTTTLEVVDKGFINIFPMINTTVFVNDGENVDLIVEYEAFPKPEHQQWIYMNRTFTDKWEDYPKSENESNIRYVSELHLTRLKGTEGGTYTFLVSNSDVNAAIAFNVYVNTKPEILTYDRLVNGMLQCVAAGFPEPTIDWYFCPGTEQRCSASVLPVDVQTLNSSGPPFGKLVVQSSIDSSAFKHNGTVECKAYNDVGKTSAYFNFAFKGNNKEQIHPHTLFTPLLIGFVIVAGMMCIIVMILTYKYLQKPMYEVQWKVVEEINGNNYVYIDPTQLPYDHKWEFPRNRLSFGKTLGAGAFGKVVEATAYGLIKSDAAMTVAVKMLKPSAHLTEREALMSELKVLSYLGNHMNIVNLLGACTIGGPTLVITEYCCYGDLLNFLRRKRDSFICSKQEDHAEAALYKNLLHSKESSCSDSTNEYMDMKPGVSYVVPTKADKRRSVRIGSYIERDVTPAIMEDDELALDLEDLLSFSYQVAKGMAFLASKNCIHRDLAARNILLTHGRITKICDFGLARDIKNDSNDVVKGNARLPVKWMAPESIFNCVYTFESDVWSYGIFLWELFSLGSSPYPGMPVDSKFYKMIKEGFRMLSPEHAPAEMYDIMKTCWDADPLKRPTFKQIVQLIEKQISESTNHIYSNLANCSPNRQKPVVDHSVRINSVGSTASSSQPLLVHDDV

With `CN(C(=O)CN1CCOCC1)c1ccc2sc3c(-c4cccc5c(=O)cc(N6CC7CCC(C6)O7)oc45)cccc3c2c1` [NU5455], the inhibition at 1 µM worked out at 5.6%.
